Data reported in ChEMBL document CHEMBL1201862, “PubChem BioAssay data set” (2004).
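Grown in 96-well plates, cells were treated for 48 hours with each compound at five concentrations. Insufficient inhibition: endpoint recorded as highest concentration tested. GI50 marks 50% less growth.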 Calls of active or inactive are those of the source. Rule as the data show it: active = GI50 up to about 1.1 µM and inactive = higher.

What was measured:
Test in all cases: DTP human tumour cell line panel, 48 h
SNB-75 = tested on: SNB-75
UO-31 = tested on: UO-31
HOP-62 = tested on: HOP-62
NCI-H23 = tested on: NCI-H23
786-0 = tested on: 786-0
SK-MEL-2 = tested on: SK-MEL-2
SW-620 = tested on: SW-620
HCT-116 = tested on: HCT-116
NCI-H460 = tested on: NCI-H460
HCT-15 = tested on: HCT-15
M14 = tested on: M14
A498 = tested on: A498
SF-268 = tested on: SF-268
U-251 = tested on: U-251
HCC 2998 = tested on: HCC 2998

With `Cc1ccc([N+](=O)[O-])cc1NC(=O)/C(=N/NC(=S)NN)C1SC(=S)NC1=O` (stereo not given) the GI50 (SNB-75) was > 100 µM (inactive), the GI50 (UO-31) was > 100 µM (inactive) and the GI50 (HOP-62) was > 100 µM (inactive). The GI50 (NCI-H23) was > 100 µM (inactive), the GI50 (786-0) was > 100 µM (inactive) and the GI50 (SK-MEL-2) was > 100 µM (inactive). The GI50 (SW-620) was > 100 µM (inactive), the GI50 (HCT-116) was > 100 µM (inactive) and the GI50 (NCI-H460) was > 100 µM (inactive). The GI50 (HCT-15) was greater than 100 µM, the GI50 (M14) was > 100 µM (inactive) and the GI50 (A498) was > 100 µM (inactive). The GI50 (SF-268) was > 100 µM (inactive) and the GI50 (U-251) was > 100 µM (inactive).
In the case of `O=C(CC1(O)C(=O)Nc2c(Cl)cc(Cl)cc21)c1ccccc1` (stereo not given), the GI50 (SNB-75) was 38.6 µM (inactive), the GI50 (UO-31) was 52.1 µM (inactive) and the GI50 (NCI-H23) was 77.6 µM (inactive). For the same molecule, the GI50 (786-0) was > 100 µM (inactive), the GI50 (SK-MEL-2) was > 100 µM (inactive) and the GI50 (SW-620) was 40.9 µM (inactive). For the same molecule, the GI50 (HCT-116) was 50.5 µM (inactive), the GI50 (NCI-H460) was > 100 µM (inactive) and the GI50 (HCT-15) was 80.9 µM. The GI50 (M14) was > 100 µM (inactive), the GI50 (A498) was > 100 µM (inactive) and the GI50 (SF-268) was 76 µM (inactive).
With `COc1c(C)cc2c(C(C)C)c(O)c(O)c(C=O)c2c1O` the GI50 (SNB-75) was 25.4 µM (inactive), the GI50 (UO-31) was 31.3 µM (inactive) and the GI50 (NCI-H23) was 18.3 µM (inactive). The GI50 (786-0) was 26.4 µM (inactive), the GI50 (SK-MEL-2) was 15.8 µM (inactive) and the GI50 (HCC 2998) was 33.9 µM (inactive). The GI50 (SW-620) was 40.6 µM (inactive), the GI50 (HCT-116) was 20.7 µM (inactive) and the GI50 (NCI-H460) was 25.9 µM (inactive). For the same molecule, the GI50 (HCT-15) was 24.5 µM, the GI50 (M14) was 23.2 µM (inactive) and the GI50 (SF-268) was 38.4 µM (inactive). For the same molecule, the GI50 (U-251) was 18 µM (inactive).
`Cc1ccn2c(c1)nc1nc3ccccc3nc12` was tested, and the GI50 (SNB-75) was 78.5 µM (inactive), the GI50 (UO-31) was > 100 µM (inactive) and the GI50 (HOP-62) was > 100 µM (inactive). For the same molecule, the GI50 (NCI-H23) was > 100 µM (inactive), the GI50 (786-0) was > 100 µM (inactive) and the GI50 (SK-MEL-2) was > 100 µM (inactive). For the same molecule, the GI50 (SW-620) was > 100 µM (inactive), the GI50 (NCI-H460) was > 100 µM (inactive) and the GI50 (HCT-15) was greater than 100 µM. For the same molecule, the GI50 (M14) was > 100 µM (inactive), the GI50 (SF-268) was > 100 µM (inactive) and the GI50 (U-251) was > 100 µM (inactive).
For `NN/C(Cc1ccccc1)=N\NO`, the GI50 (SNB-75) was > 100 µM (inactive), the GI50 (NCI-H23) was 57.4 µM (inactive) and the GI50 (786-0) was > 100 µM (inactive). The GI50 (SK-MEL-2) was > 100 µM (inactive), the GI50 (HCC 2998) was > 100 µM (inactive) and the GI50 (SW-620) was > 100 µM (inactive). For the same molecule, the GI50 (HCT-116) was 47.2 µM (inactive), the GI50 (NCI-H460) was > 100 µM (inactive) and the GI50 (HCT-15) was 26.8 µM. The GI50 (M14) was 63.8 µM (inactive), the GI50 (A498) was > 100 µM (inactive) and the GI50 (SF-268) was > 100 µM (inactive).
In the case of `O=c1/c(=C/c2ccccc2F)sc2nc3ccccc3n12`, the GI50 (SNB-75) was 57.4 µM (inactive), the GI50 (UO-31) was > 100 µM (inactive) and the GI50 (NCI-H23) was > 100 µM (inactive). The GI50 (786-0) was > 100 µM (inactive), the GI50 (SK-MEL-2) was > 100 µM (inactive) and the GI50 (HCC 2998) was > 100 µM (inactive). The GI50 (SW-620) was > 100 µM (inactive), the GI50 (HCT-116) was > 100 µM (inactive) and the GI50 (NCI-H460) was > 100 µM (inactive). The GI50 (HCT-15) was greater than 100 µM, the GI50 (M14) was > 100 µM (inactive) and the GI50 (A498) was > 100 µM (inactive). The GI50 (SF-268) was 61.5 µM (inactive) and the GI50 (U-251) was 38.7 µM (inactive).
For `Cc1ccc(Nc2ccc(Nc3ccc(C)cc3S(=O)(=O)O)c3c2C(=O)c2ccccc2C3=O)c(S(=O)(=O)O)c1`, the GI50 (SNB-75) was 94.6 µM (inactive), the GI50 (UO-31) was > 100 µM (inactive) and the GI50 (HOP-62) was > 100 µM (inactive). The GI50 (786-0) was > 100 µM (inactive), the GI50 (SK-MEL-2) was > 100 µM (inactive) and the GI50 (HCC 2998) was > 100 µM (inactive). For the same molecule, the GI50 (SW-620) was > 100 µM (inactive), the GI50 (HCT-116) was > 100 µM (inactive) and the GI50 (NCI-H460) was > 100 µM (inactive). For the same molecule, the GI50 (HCT-15) was greater than 100 µM, the GI50 (M14) was > 100 µM (inactive) and the GI50 (A498) was > 100 µM (inactive). For the same molecule, the GI50 (SF-268) was > 100 µM (inactive) and the GI50 (U-251) was > 100 µM (inactive).
In the case of `CC[C@@H]1C[C@H]2CC3c4[nH]c5ccc(O)cc5c4CCN(C2)C31`, the GI50 (SNB-75) was > 100 µM (inactive), the GI50 (UO-31) was > 100 µM (inactive) and the GI50 (HOP-62) was > 100 µM (inactive). For the same molecule, the GI50 (NCI-H23) was > 100 µM (inactive), the GI50 (786-0) was > 100 µM (inactive) and the GI50 (SK-MEL-2) was > 100 µM (inactive). For the same molecule, the GI50 (HCC 2998) was > 100 µM (inactive), the GI50 (SW-620) was > 100 µM (inactive) and the GI50 (HCT-116) was > 100 µM (inactive). The GI50 (NCI-H460) was > 100 µM (inactive), the GI50 (HCT-15) was greater than 100 µM and the GI50 (M14) was > 100 µM (inactive). For the same molecule, the GI50 (SF-268) was > 100 µM (inactive) and the GI50 (U-251) was > 100 µM (inactive).
